Test results published in patent US20140079836A1, “METHODS AND COMPOSITIONS FOR ALTERING HEALTH, WELLBEING, AND LIFESPAN” (LifeSpan Extension, LLC, priority 2008, published 2014).

Tested on: Custom Array II Genes
Assay: Custom Array II gene expression, antioxidant alone or + UVB
Assay type: cell-based

COC1=C(OC)C(=O)C(CCCCCCCCCCO)=C(C)C1=O [Idebenone, 6-(10-hydroxydecyl)-2,3-dimethoxy-5-methyl-1,4-benzoquin-one]
ACE (NM_000789) Expression (+ UVB): −1.1 | ACTB (NM_001101) Expression (+ UVB): −1.1 | APOE (NM_000041) Expression (+ UVB): −1.2 | BAX (NM_004324) Expression (+ UVB): 1.3 | BCL2 (NM_000633) Expression (+ UVB): 1.6 | BCL2L1 (NM_138578) Expression (+ UVB): 1.0 | BMP2 (NM_001200) Expression (+ UVB): −1.7 | CASP2 (NM_032982) Expression (+ UVB): −1.3 | CASP9 (NM_001229) Expression (+ UVB): 1.0 | CCL4L1 (NM_001001435) Expression (+ UVB): 1.2 | CDKN2A (NM_000077) Expression (+ UVB): −1.0 | CLK1 (NM_004071) Expression (+ UVB): −1.1 | COL1A1 (NM_000088) Expression (+ UVB): −1.0 | COL3A1 (NM_000090) Expression (+ UVB): −1.2 | COX1 (NP_536845) Expression (+ UVB): 1.5 | CREBBP (NM_004380) Expression (+ UVB): −1.1 | CRP (NM_000567) Expression (+ UVB): 1.0 | CYP19A1 (NM_000103) Expression (+ UVB): 1.0 | DDC (NM_000790) Expression (+ UVB): 1.0 | DUSP2 (NM_004418) Expression (+ UVB): 1.1 | EGF (NM_001963) Expression (+ UVB): 1.0 | EGR2 (NM_000399) Expression (+ UVB): 1.7 | FOS (NM_005252) Expression (+ UVB): −1.4 | FOXO3 (NM_001455) Expression (+ UVB): −1.3 | GADPH (NM_002046) Expression (+ UVB): −1.2 | GCH1 (NM_000161) Expression (+ UVB): −1.7 | GH1 (NM_000515) Expression (+ UVB): 1.3 | GPX1 (NM_000581) Expression (+ UVB): −1.1 | HBEGF (NM_001945) Expression (+ UVB): 1.8 | HGDC (SA_00105) Expression (+ UVB): 1.1 | HLA-DRA (NM_019111) Expression (+ UVB): 1.0 | HMOX1 (NM_002133) Expression (+ UVB): 1.0 | HPRT1 (NM_000194) Expression (+ UVB): 1.3 | HSPA1A (NM_005345) Expression (+ UVB): −1.3 | HSPA1B (NM_005346) Expression (+ UVB): −1.3 | HSPA1L (NM_005527) Expression (+ UVB): −1.1 | HSPA6 (NM_002155) Expression (+ UVB): −1.8 | IFI44 (NM_006417) Expression (+ UVB): 1.0 | IGF1 (NM_000618) Expression (+ UVB): 1.1 | IGF2 (NM_000612) Expression (+ UVB): 1.0 | IL1A (NM_000575) Expression (+ UVB): 1.0 | IL6 (NM_000600) Expression (+ UVB): 1.5 | IL8 (NM_000584) Expression (+ UVB): 1.0 | IL10 (NM_000572) Expression (+ UVB): 1.1 | IL11 (NM_000641) Expression (+ UVB): 1.1 | IL33 (NM_033439) Expression (+ UVB): 2.3 | IMMP1L (NM_144981) Expression (+ UVB): 1.2 | JUN (NM_002228) Expression (+ UVB): −1.1 | KIT (NM_000222) Expression (+ UVB): 1.4 | KL (NM_004795) Expression (+ UVB): 1.0 | KRAS (NM_004985) Expression (+ UVB): 1.0 | MAPK14 (NM_001315) Expression (+ UVB): −1.4 | MMP1 (NM_002421) Expression (+ UVB): 1.0 | NADSYN1 (NM_018161) Expression (+ UVB): −1.1 | NEIL1 (NM_024608) Expression (+ UVB): 1.0 | NFKB1 (NM_003998) Expression (+ UVB): −1.1 | NOS1 (NM_000620) Expression (+ UVB): 1.2 | NOS2 (NM_000625) Expression (+ UVB): 1.0 | NOS3 (NM_000603) Expression (+ UVB): −1.0 | PARP1 (NM_001618) Expression (+ UVB): 1.0 | PARP2 (NM_005484) Expression (+ UVB): 1.2 | PARP3 (NM_005485) Expression (+ UVB): 1.1 | PARP4 (NM_006437) Expression (+ UVB): 4.7 | PARP9 (NM_031458) Expression (+ UVB): −1.1 | PDGFRL (NM_006207) Expression (+ UVB): 1.2 | POT1 (NM_015450) Expression (+ UVB): 1.2 | PPARG (NM_015869) Expression (+ UVB): −1.2 | PPARGC1 (NM_013261) Expression (+ UVB): −1.2 | PPC (SA_00103) Expression (+ UVB): 1.0 | PTGS2 (NM_000963) Expression (+ UVB): 1.3 | RAP1A (NM_002884) Expression (+ UVB): −1.2 | RTC (SA_00104) Expression (+ UVB): 1.2 | S100A7 (NM_002963) Expression (+ UVB): 1.3 | SERPINB (NM_002575) Expression (+ UVB): 1.0 | SHC1 (NM_003029) Expression (+ UVB): −1.1 | SIRT1 (NM_012238) Expression (+ UVB): 1.1 | SIRT2 (NM_012237) Expression (+ UVB): −1.1 | SIRT3 (NM_012239) Expression (+ UVB): −1.2 | SIRT4 (NM_012240) Expression (+ UVB): 1.0 | SOD1 (NM_000454) Expression (+ UVB): −1.1 | SOD2 (NM_000636) Expression (+ UVB): 1.0 | TEP1 (NM_007110) Expression (+ UVB): 1.1 | TERF2 (NM_005652) Expression (+ UVB): −1.1 | TERT (NM_198255) Expression (+ UVB): −1.3 | TGFB1 (NM_000660) Expression (+ UVB): −1.2 | TIMM22 (NM_013337) Expression (+ UVB): −1.1 | TIMP3 (NM_000362) Expression (+ UVB): −1.3 | TINF2 (NM_012461) Expression (+ UVB): 1.1 | TNF (NM_000594) Expression (+ UVB): −2.6 | TOMM40 (NM_006114) Expression (+ UVB): −1.8 | TP53 (NM_000546) Expression (+ UVB): −1.3 | TPP1 (NM_000391) Expression (+ UVB): 1.0 | UBE2S (NM_014501) Expression (+ UVB): −1.3 | VEGFA (NM_003376) Expression (+ UVB): −1.3 | ACE (NM_000789) Expression (Alone): −1.0 | ACTB (NM_001101) Expression (Alone): 1.0 | APOE (NM_000041) Expression (Alone): 1.0 | BAX (NM_004324) Expression (Alone): 1.3 | BCL2 (NM_000633) Expression (Alone): 1.2 | BCL2L1 (NM_138578) Expression (Alone): 1.0 | BMP2 (NM_001200) Expression (Alone): 1.1 | CASP2 (NM_032982) Expression (Alone): 1.0 | CASP9 (NM_001229) Expression (Alone): −1.0 | CCL4L1 (NM_001001435) Expression (Alone): 1.0 | CDKN2A (NM_000077) Expression (Alone): 1.0 | CLK1 (NM_004071) Expression (Alone): 1.0 | COL1A1 (NM_000088) Expression (Alone): 1.0 | COL3A1 (NM_000090) Expression (Alone): −1.1 | COX1 (NP_536845) Expression (Alone): 1.0 | CREBBP (NM_004380) Expression (Alone): 1.0 | CRP (NM_000567) Expression (Alone): −1.0 | CYP19A1 (NM_000103) Expression (Alone): 1.4 | DDC (NM_000790) Expression (Alone): 1.0 | DUSP2 (NM_004418) Expression (Alone): 1.0 | EGF (NM_001963) Expression (Alone): 1.0 | EGR2 (NM_000399) Expression (Alone): 1.0 | FOS (NM_005252) Expression (Alone): 1.0 | FOXO3 (NM_001455) Expression (Alone): 1.0 | GADPH (NM_002046) Expression (Alone): 1.3 | GCH1 (NM_000161) Expression (Alone): 1.0 | GH1 (NM_000515) Expression (Alone): 1.0 | GPX1 (NM_000581) Expression (Alone): 1.0 | HBEGF (NM_001945) Expression (Alone): 1.0 | HGDC (SA_00105) Expression (Alone): 1.2 | HLA-DRA (NM_019111) Expression (Alone): 1.0 | HMOX1 (NM_002133) Expression (Alone): −1.0 | HPRT1 (NM_000194) Expression (Alone): 1.2 | HSPA1A (NM_005345) Expression (Alone): −1.0 | HSPA1B (NM_005346) Expression (Alone): −1.0 | HSPA1L (NM_005527) Expression (Alone): 1.0 | HSPA6 (NM_002155) Expression (Alone): −1.1 | IFI44 (NM_006417) Expression (Alone): −1.6 | IGF1 (NM_000618) Expression (Alone): 1.1 | IGF2 (NM_000612) Expression (Alone): 1.0 | IL1A (NM_000575) Expression (Alone): −1.0 | IL6 (NM_000600) Expression (Alone): −1.0 | IL8 (NM_000584) Expression (Alone): −1.2 | IL10 (NM_000572) Expression (Alone): 1.1 | IL11 (NM_000641) Expression (Alone): −1.1 | IL33 (NM_033439) Expression (Alone): −1.1 | IMMP1L (NM_144981) Expression (Alone): −1.0 | JUN (NM_002228) Expression (Alone): 1.0 | KIT (NM_000222) Expression (Alone): −1.3 | KL (NM_004795) Expression (Alone): 1.0 | KRAS (NM_004985) Expression (Alone): −1.4 | MAPK14 (NM_001315) Expression (Alone): 1.0 | MMP1 (NM_002421) Expression (Alone): 1.0 | NADSYN1 (NM_018161) Expression (Alone): 1.2 | NEIL1 (NM_024608) Expression (Alone): 1.5 | NFKB1 (NM_003998) Expression (Alone): −1.5 | NOS1 (NM_000620) Expression (Alone): 1.9 | NOS2 (NM_000625) Expression (Alone): 1.1 | NOS3 (NM_000603) Expression (Alone): 1.0 | PARP1 (NM_001618) Expression (Alone): 1.3 | PARP2 (NM_005484) Expression (Alone): 1.3 | PARP3 (NM_005485) Expression (Alone): −1.0 | PARP4 (NM_006437) Expression (Alone): 1.1 | PARP9 (NM_031458) Expression (Alone): 1.0 | PDGFRL (NM_006207) Expression (Alone): −1.1 | POT1 (NM_015450) Expression (Alone): −1.0 | PPARG (NM_015869) Expression (Alone): −1.0 | PPARGC1 (NM_013261) Expression (Alone): −1.0 | PPC (SA_00103) Expression (Alone): 1.0 | PTGS2 (NM_000963) Expression (Alone): −1.2 | RAP1A (NM_002884) Expression (Alone): 1.3 | RTC (SA_00104) Expression (Alone): 1.1 | S100A7 (NM_002963) Expression (Alone): 1.1 | SERPINB (NM_002575) Expression (Alone): 1.1 | SHC1 (NM_003029) Expression (Alone): −1.4 | SIRT1 (NM_012238) Expression (Alone): −1.2 | SIRT2 (NM_012237) Expression (Alone): −1.0 | SIRT3 (NM_012239) Expression (Alone): −1.1 | SIRT4 (NM_012240) Expression (Alone): 1.1 | SOD1 (NM_000454) Expression (Alone): −1.0 | SOD2 (NM_000636) Expression (Alone): −1.2 | TEP1 (NM_007110) Expression (Alone): 1.1 | TERF2 (NM_005652) Expression (Alone): 1.0 | TERT (NM_198255) Expression (Alone): 1.1 | TGFB1 (NM_000660) Expression (Alone): −1.1 | TIMM22 (NM_013337) Expression (Alone): 1.1 | TIMP3 (NM_000362) Expression (Alone): 1.2 | TINF2 (NM_012461) Expression (Alone): 1.1 | TNF (NM_000594) Expression (Alone): −1.1 | TOMM40 (NM_006114) Expression (Alone): 1.0 | TP53 (NM_000546) Expression (Alone): −1.1 | TPP1 (NM_000391) Expression (Alone): −1.1 | UBE2S (NM_014501) Expression (Alone): 1.2 | VEGFA (NM_003376) Expression (Alone): −1.7
